Experimental data taken from patent publication US20070248590A1, “Modulators of CDC2-like kinases (CLKS) and methods of use thereof” (Sirtris Pharmaceuticals, Inc., priority 2005, published 2007).

Legend:
HDAC = conditions: in vitro or in vivo, literature; cited from earlier work
[1] = tested on: insulin induction of CLK2 alternate splicing in FAO cells; assay: CLK2 splicing analysis (RT-PCR with primers flanking exon 4) in FAO cells; assay type: cell-based, rat; conditions: 20 μM inhibitor pretreatment
Procedure: Splicing Analysis. Total RNA was isolated from FAO hepatocytes pre-treated with indicated inhibitor then Insulin for 2 hours. RT-PCR was performed using SuperScript One-Step RT-PCR with taq (Invitrogen) on 1 ug of total RNA using primers flanking exon 4 on Clk2 and Clk1.

[2] = tested on: PGC-1alpha and SIRT1 phosphorylation in H2.35 cells; assay: Metabolic 32P PO4 labeling of H2.35 cells, insulin stimulated; assay type: cell-based, mouse; conditions: 30 minutes pretreatment, 40 minute insulin stimulation
Procedure: PGC-1alpha and SIRT1 phosphorylation in vivo is stimulated by insulin and blocked by LY and TG003 as determined by metabolic ^32P PO4 labeling of H2.35 cells infected with adenovirus Flag-Ha-PGC-1alpha or Flag-HA-SIRT1. Cells were infected for 24 hours low glucose DMEM 4% FBS then serum starved for 24 hours in low glucose DMEM 0.5% BSA. Media was then replaced with PO4 free DMEM 0.5% BSA for 30 minutes, and cells were then pretreated with LY or TG003 for 30 minutes before addition of 100 uCi ^32P PO4. Cells were incubated in ^32P PO4 for 20 minutes before a 40 minute insulin stimulation. Cells were then washed with ice-cold PBS, harvested and lysed. Flag-HA-PCC-1alpha and Flag-HA-SIRT1 were immunoprecipitated used anti-flag agarose (Sigma-Aldrich, Cat. #A4596). Immunoprecipitates were washed extensively and analyzed by SDS-PAGE, transferred to PVDF membrane where ^32P signal was analyzed by a Bio-Rad Phosphor-Imager (Bio-Rad Laboratories) (FIG. 20A) and normalized to protein quantitated by western blot using anti-flag antibodies by a Versa-Doc camera system and quantitation software (Bio-Rad Laboratories) (FIG. 20B).

[3] = tested on: diet-induced obese (DIO) C57BL/6 mice; assay: IP dosing of TG003 in DIO mouse model; assay type: in vivo
Procedure: Specifically, 5 week old C57BL/6 mice (male 18-22 grams, Charles River Labs, Willmington, Mass.) are placed either on a high fat diet (Research Diets Inc., New Brunswick, N.J., 60% kcal fat Rodent Diet Cat#D12492) or regular chow. Mice are weighed once a week for 5 weeks, test baseline fed glucose, lactate, triglycerides and insulin. At approximately 6 weeks or when mean weight of the DIO groups reach 40 grams, dosing is initiated. TG003 was dosed via IP injection at either 30 or 100 mg/kg (TG003 suspended in 2% HPMC+0.2% DOSS as in previous example). Control DIO and chow fed animals were dosed with IP injection of vehicle alone. Once dosing starts data collections was as follows: Week 1 time point includes a fasted blood glucose measurement, Week 2 blood collection, Week 3 an IPGTT and Week 4 is an endpoint blood and tissue collection.
Mice are dosed at the same time daily. Body weights are taken 2 times a week once dosing starts. Baseline measurements of fed glucose, lactate, triglycerides and insulin are taken at time 0 (commencement of dosing).
Insulin Assay: Mouse insulin levels were measured using the Linco Rat/Mouse Insulin ELISA kit (Cat. #EZRMI-13K). 0 week, 2 week and 4 week blood insulin levels are shown in FIGS. 27A, 27B and 27C respectively for 100 mg/kg TG003 study. 0 week, 2 week and 4 week blood insulin levels are shown in FIGS. 31A, 31B and 31C respectively for 30 mg/kg TG003 study.
IPGTT: Mice are fasted for a minimum of 16 hrs. A glucose reading is taken at time Zero using a glucose meter. Mice are injected with 2 g/kg D-Glucose at one minute time points. A glucose reading is taken at 15, 30, 60, and 120 minutes (Medisense Precision Extra, Blood Glucose Meter, Abbott Cat# 70297-01).

[4] = tested on: CLK2 repression of PGC-1alpha coactivation of HNF4alpha; assay: gAF1-luciferase (HNF4alpha response element) reporter assay in HEK 293 cells; assay type: cell-based, human; conditions: 20 μM TG003
Procedure: Transient Transfections. HEK 293 were transfected using PolyFect (Qiagen). 25 ng of reporter (gAF1-Luciferase) and 25 ng of pcDNA mouse HNF4-alpha were transfected with pcDNA mouse PGC-1 alpha and pcDNA Flag-CLK2. Equal amounts of total DNA were used for all transfections by adding appropriate amounts of empty vector pcDNA. TG003 (Calbiochem) was added 4 hours after transfection and cells were harvested the next morning. The data presented is the average of 3 replicates from a single experiment, all luciferase experiments were performed at least 3 times with similar results.

[5] = tested on: diet-induced obese (DIO) C57BL/6 mice; assay: Oral dosing of TG003 in DIO mouse model; assay type: in vivo
Procedure: Twenty 9 week old C57BL/6 mice were placed on 60% kcal % fat diet (high fat diet with 60% of calories from fat; Research Diets, Inc., New Brunswick, N.J. Cat. No. D12492) and 15 mice were placed on regular chow. Mice were weighed once a week for 5 weeks, baseline fed glucose, triglycerides and insulin was measured. At approximately 6 weeks on the high fat diet, or when the average body weight of the DIO mice becomes 40 grams, dosing began at various doses and preparations. Mice were dosed daily with either vehicle (2% HPMC+0.2% DOSS) or with TG003 suspended in vehicle and dosed via oral gavage at 100 mg/kg (10 animals each in DIO group; 9 animals in vehicle chow group and 6 animals in TG003 chow group). The study was divided into DIO groups with mean average body weight/cage. Chow fed groups were also sorted by mean average body weight/cage. Body weights were measured once weekly to adjust dosing concentrations for body weight.
Baseline blood on all mice for glucose, triglycerides, insulin, etc. was taken following a one hour food withdrawal. Once dosing started, data collections were as follows: Week 1 time point included fasted blood glucose and body temps for select groups, Week 2 was a fed blood collection, Week 3 fasted blood glucose, Week 4 body temps on select groups and endpoint blood and tissue collection. Body temperature of select groups post dosing on week 1 and week 4 was also taken. Concentration of TG003 compound is adjusted to proper dose according to the mean weight for each group weekly. Final blood collection of all groups was taken 1 hour after dosing in order to determine levels of drug in blood compared to original PK. Mice were not dosed on the day of week 2 blood collections. Mice are typically dosed in the a.m. and only dosed in the p.m. on a day following a 16 hr fast. A test for Free Fatty Acids is done with the plasma final blood collection and with final plasma collection. Assays were done as described above for TG003 IP dosing example.

[6] = tested on: CLK2 phosphorylation of Sirt1 in HEK 293 cells; assay: Metabolic 32P labeling of Flag-HA-Sirt1 in transfected HEK 293 cells; assay type: cell-based, human; conditions: 40 uM TG003
Procedure: (§1) Cell Culture. HEK 293 Cells were cultured in DMEM+10% CCS. FAO Rat hepatocytes were grown in Hamm's F-12 media with 5% FBS. Prior to experiments or adenoviral infections media was switched to RPMI+0.5% BSA. H2.35 Mouse Hepatocytes were grown in DMEM (low glucose)+4% FBS and 2 μM Dexamethasome. Prior to experiments and infection, media was switched to DMEM (low glucose)+0.5% BSA. CLK inhibitor, TG003 (CalBiochem) was dissolved in DMSO.
(§2) Immunoprecipitation and Co-Immunoprecipitation. Cells were washed once with PBS containing Phosphatase inhibitors (5 mM Glycerol-2-phosphate, 20 mM NaF, and 0.2 mM Na OrthoVanadate), scraped into tubes, spun down, and lysed by 2× freeze-thaw cycles in 0.4% Triton, 100 mM NaCl, 20 mM KHepes pH 7.9, 1 mM EDTA, Phosphatase inhibitors, 1 mM PMSF, and 1× Protease Inhibitors (Roche). Immunoprecipitations were performed with M2 anti-flag agarose (sigma) or Anti-HA agarose (Roche) for 2 hours rotating at 4 degrees C. followed by 3 washes in lysis buffer. Products were resolved by SDS-PAGE and transferred to PVDF membranes for Western blot analysis.
Metabolic Labeling. HEK 293 were transfected as described above. […] Immunoprecipitates were resolved by SDS-PAGE and transferred to PVDF membrane, ^32PO4 was detected by exposing membrane to Phospho-imaging screen and followed by Western-Blot using anti-flag antibodies (M2, Sigma).

[7] = tested on: CLK2 interaction with Sirt1 in HEK 293 cells; assay: Co-immunoprecipitation of endogenous Sirt1 with Flag-CLK2 in HEK 293 cells; assay type: cell-based; conditions: HEK 293 cells transfected with Flag-CLK2
Procedure: as §2

[8] = tested on: total phosphorylation of PGC-1alpha and Sirt1 in FAO cells; assay: Metabolic 32P labeling of PGC-1alpha and Sirt1 in FAO hepatocytes; assay type: cell-based, rat; conditions: 40 μM TG003
Procedure: as §1
Metabolic Labeling. HEK 293 were transfected as described above. The next morning cells were switched to DMEM without PO4+10% CCS for 30 minutes, cells were then treated with or without TG003 for 30 minutes then 200 μCi of ^32PO4 was added for 2 hours. Cells were harvested and immunoprecipitation was performed as described above. Immunoprecipitates were resolved by SDS-PAGE and transferred to PVDF membrane, ^32PO4 was detected by exposing membrane to Phospho-imaging screen and followed by Western-Blot using anti-flag antibodies (M2, Sigma).
FAO Hepatocytes were infected with adenovirus as indicated in the figures for 2 days in RPMI+0.5% BSA. Metabolic labeling was performed as described above, except cells were incubated in ^32PO4 for 4 hours.

[9] = tested on: gluconeogenic genes (PGC-1alpha targets) in FAO hepatocytes; assay: Northern blot of PGC-1alpha target genes in FAO hepatocytes; assay type: cell-based, rat
Procedure: Northern Blot and RNA analysis. FAO hepatocytes were infected with indicated adenovirus overnight in RPMI+0.5% BSA. Cells were grown for 2 more days in RPMI+0.5% BSA. Cells were treated as indicated. Total RNA was isolated using Trizol (Invitrogen). Northern blots using indicated cDNAs were performed on 15 μg of total RNA. Quantitation of RNA was performed by exposing membranes to phosphor-imager screens and analyzed by a Bio-Rad Personal Imager FX and Quantity-One quantitation software (Bio-Rad).

[10] = tested on: PEPCK mRNA expression in FAO hepatocytes; assay: Pepck mRNA by Q-RT-PCR in FAO hepatocytes; assay type: cell-based, rat; conditions: 20 uM TG003 for 7 hours
Procedure: (§3) Cells were grown in F-12+5% FBS then switched to 10% FBS and treated with or without 20 uM TG003 for 7 hours. Total RNA was isolated using Trizol (Invitrogen, Cat. # 15596-026) and reverse transcribed using oligo dT and super script II (Inivtrogen, Cat. # 18064-014). Pepck mRNA was measured by Q-RT-PCR relative to 36B4 control mRNA. Each bar is average+/−stdev N=3.
as §3, with “serum starved O/N and” for “grown in F-12+5% FBS”, “then” for “then switched to 10% FBS and”, “200 nM Insulin” for “20 uM TG003”, “2” for “7”

[11] = systemic intraperitoneal delivery, DIO mice, 30 or 100 mg/kg
[12] = FAO hepatocytes overexpressing PGC-1alpha, increasing amounts of TG003

O=C(/C=C/c1cccc(C(=O)NO)c1)NO [CBHA, m-carboxy-cinnamic acid bishydroxamic acid]
inhibition of HDAC (HDAC): micromolar concentration or lower

C/C=C1\NC(=O)[C@H]2CSSCC/C=C/[C@H](CC(=O)N[C@H](C(C)C)C(=O)N2)OC(=O)[C@H](C(C)C)NC1=O [Depsipeptide]
inhibition of HDAC (HDAC): micromolar concentrations

O=c1cc(N2CCOCC2)oc2c(-c3ccccc3)cccc12 [LY]
insulin induction of CLK2 alternate splicing (truncated transcript) [1]: blocks
insulin-stimulated PGC-1alpha phosphorylation [2]: blocked
insulin-stimulated SIRT1 phosphorylation [2]: blocked

CCN1/C(=C/C(C)=O)Sc2ccc(OC)cc21 [TG003, (Z)-1-(3-ethyl-5-methoxy-2,3-dihydrobenzothiazol-2-ylidene) propan-2-one]
drug remaining at injection site upon sacrifice ([3]; IP dosing, multiple injections): observed in the intraperitoneal cavity
blood glucose levels [3, 11]: decrease
blood insulin levels [3, 11]: decrease
body weight [3, 11]: decrease
CLK2 repression of PGC-1 alpha (luciferase activity) [4]: partially rescues
in vivo effect on body weight seen with IP dosing ([5]; 100 mg/kg oral dosing): did not repeat
fed insulin ([5]; 100 mg/kg oral vs vehicle, 2 week, DIO or chow groups): not much of an effect
fed blood glucose ([5]; 100 mg/kg oral vs vehicle, 4 week, DIO or chow groups): not much of an effect
body temperature ([5]; DIO animals, 100 mg/kg oral, 1 week of dosing): significant drop
drop in body temperature ([5]; DIO animals, 100 mg/kg oral, 4 weeks of dosing): > 2 degree
body temperature ([5]; chow fed group, 100 mg/kg oral): no significant effect
incorporation of 32phosphate into Flag-HA-Sirt1 WT [6]: noticeably decreased
shift in Sirt1 mobility caused by overexpression of CLK2 [6]: abrogated
mobility of Sirt1 co-immunoprecipitated with CLK2 [7]: shifted to a band with faster mobility
total phosphorylation of PGC-1alpha (32phosphate relative to protein levels) [8]: decreased
total phosphorylation of Sirt1 (32phosphate relative to protein levels) [8]: decreased
insulin induction of CLK2 alternate splicing (truncated transcript) [1]: blocks
induction of G6Pase [9, 12]: seen in a dose dependent manner
induction of Pepck [9, 12]: seen in a dose dependent manner
CLK2 repression of PGC-1alpha induction of gluconeogenic genes (G6Pase, Pepck) ([9]; FAO hepatocytes, 40 μM TG003 for 1 hour then Fsk+Dex): rescued
insulin-stimulated PGC-1alpha phosphorylation [2]: blocked
insulin-stimulated SIRT1 phosphorylation [2]: blocked
Pepck mRNA relative to 36B4 [10]: induction

depudecin
inhibition of HDAC (HDAC): micromolar concentrations

trichostatin A [TSA]
inhibition of HDAC (HDAC): potent inhibitor
